Legend:
COX2(h) = target: T1, COX2(h) (Homo sapiens, UniProt P35354); assay: COX2(h); conditions: read-out: Inhibition COX2(h)
T1 sequence (P35354 18-604): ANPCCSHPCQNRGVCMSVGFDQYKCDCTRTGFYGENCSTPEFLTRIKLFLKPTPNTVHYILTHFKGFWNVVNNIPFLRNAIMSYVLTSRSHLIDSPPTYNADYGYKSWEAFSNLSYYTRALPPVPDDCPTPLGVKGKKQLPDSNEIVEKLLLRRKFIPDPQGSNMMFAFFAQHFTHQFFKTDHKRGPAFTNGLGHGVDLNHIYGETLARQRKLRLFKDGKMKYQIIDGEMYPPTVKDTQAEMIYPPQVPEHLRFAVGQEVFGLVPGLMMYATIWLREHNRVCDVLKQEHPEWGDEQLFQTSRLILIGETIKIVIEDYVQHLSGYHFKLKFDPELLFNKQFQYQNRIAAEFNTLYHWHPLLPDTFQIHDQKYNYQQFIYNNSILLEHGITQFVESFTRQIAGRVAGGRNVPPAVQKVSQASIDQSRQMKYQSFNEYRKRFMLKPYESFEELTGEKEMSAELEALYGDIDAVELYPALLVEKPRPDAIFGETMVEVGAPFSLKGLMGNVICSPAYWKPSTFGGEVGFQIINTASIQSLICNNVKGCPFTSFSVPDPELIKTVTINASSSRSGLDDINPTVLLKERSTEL

GSK3beta (h) = GSK3beta (h) (Homo sapiens, UniProt P49841); assay: GSK3beta (h); conditions: read-out: Inhibition GSK3beta (h)
Sequence of GSK3beta (h) (P49841 whole entry): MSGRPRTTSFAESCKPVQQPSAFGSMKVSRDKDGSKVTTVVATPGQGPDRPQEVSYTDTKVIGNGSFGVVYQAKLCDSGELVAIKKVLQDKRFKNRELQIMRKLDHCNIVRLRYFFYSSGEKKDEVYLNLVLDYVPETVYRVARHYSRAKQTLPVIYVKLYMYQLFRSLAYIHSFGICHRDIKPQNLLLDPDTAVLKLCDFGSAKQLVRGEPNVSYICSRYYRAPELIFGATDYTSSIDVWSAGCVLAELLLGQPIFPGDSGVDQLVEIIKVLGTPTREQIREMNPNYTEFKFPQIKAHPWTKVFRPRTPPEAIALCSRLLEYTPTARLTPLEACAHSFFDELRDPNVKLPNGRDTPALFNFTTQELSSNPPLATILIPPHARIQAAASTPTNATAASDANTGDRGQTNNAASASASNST

H3 (h) = H3 (h) (Homo sapiens, UniProt Q9Y5N1); assay: H3 (h) (agonist radioligand); conditions: read-out: Inhibition H3 (h) (agonist radioligand)
Sequence of H3 (h) (Q9Y5N1 whole entry): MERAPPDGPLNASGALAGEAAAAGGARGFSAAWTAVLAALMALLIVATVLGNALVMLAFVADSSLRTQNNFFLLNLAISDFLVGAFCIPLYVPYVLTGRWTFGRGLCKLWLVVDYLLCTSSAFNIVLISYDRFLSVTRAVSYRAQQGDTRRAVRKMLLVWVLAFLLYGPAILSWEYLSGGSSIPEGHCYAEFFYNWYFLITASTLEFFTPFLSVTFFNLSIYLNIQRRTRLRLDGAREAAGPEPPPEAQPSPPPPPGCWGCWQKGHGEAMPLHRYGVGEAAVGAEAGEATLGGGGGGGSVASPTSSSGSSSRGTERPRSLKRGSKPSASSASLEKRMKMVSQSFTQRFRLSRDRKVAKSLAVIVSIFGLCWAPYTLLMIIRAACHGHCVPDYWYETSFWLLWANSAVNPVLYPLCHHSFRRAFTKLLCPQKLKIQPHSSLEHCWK

M2 (h) = target: T2, M2 (h) (Homo sapiens, UniProt P08172); assay: M2 (h) (antagonist radioligand); conditions: read-out: Inhibition M2 (h) (antagonist radioligand)
T2 sequence (P08172 1-466): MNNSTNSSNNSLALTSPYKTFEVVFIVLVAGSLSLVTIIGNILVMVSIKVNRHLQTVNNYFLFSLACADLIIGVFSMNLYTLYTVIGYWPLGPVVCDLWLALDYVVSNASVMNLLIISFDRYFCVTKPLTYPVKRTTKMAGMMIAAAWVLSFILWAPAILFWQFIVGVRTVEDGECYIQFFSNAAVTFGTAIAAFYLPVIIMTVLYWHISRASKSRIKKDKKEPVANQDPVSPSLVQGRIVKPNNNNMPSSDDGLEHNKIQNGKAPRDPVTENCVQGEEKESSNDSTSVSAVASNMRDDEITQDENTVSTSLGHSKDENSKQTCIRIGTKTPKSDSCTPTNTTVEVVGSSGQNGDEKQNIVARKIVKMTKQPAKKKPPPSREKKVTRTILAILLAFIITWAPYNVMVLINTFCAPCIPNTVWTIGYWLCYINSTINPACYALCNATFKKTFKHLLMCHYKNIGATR

AT1 (h) = target: T3, AT1 (h) (Homo sapiens, UniProt P30556); assay: AT1 (h) (antagonist radioligand); conditions: read-out: Inhibition AT1 (h) (antagonist radioligand)
T3 sequence (P30556 1-359): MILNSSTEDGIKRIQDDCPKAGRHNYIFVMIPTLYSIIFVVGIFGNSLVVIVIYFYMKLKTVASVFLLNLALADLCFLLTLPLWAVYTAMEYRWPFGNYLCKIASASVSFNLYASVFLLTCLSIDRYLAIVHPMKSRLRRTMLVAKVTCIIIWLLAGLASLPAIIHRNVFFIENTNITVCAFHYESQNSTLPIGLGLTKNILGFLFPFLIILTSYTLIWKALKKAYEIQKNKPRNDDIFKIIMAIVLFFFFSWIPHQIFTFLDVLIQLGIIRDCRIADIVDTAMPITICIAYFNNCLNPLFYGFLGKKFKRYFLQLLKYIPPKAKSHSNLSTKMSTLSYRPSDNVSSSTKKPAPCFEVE

beta2 (h) = beta2 (h) (Homo sapiens, UniProt P07550); assay: beta2 (h) (antagonist radioligand); conditions: read-out: Inhibition beta2 (h) (antagonist radioligand)
Sequence of beta2 (h) (P07550 whole entry): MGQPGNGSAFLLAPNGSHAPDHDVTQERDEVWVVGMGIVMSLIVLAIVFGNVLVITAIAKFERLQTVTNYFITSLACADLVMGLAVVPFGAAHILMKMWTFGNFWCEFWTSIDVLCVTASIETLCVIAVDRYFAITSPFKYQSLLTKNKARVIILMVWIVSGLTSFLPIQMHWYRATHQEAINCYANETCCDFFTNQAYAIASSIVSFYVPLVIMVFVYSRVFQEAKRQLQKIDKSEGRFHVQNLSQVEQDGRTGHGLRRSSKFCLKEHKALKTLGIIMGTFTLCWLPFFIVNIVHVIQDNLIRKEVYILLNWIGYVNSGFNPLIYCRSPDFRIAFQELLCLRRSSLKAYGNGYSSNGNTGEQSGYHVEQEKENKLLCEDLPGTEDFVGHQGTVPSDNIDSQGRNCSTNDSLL

5-HT3 (h) = target: T4, 5-HT3 (h) (Homo sapiens, UniProt P46098); assay: 5-HT3 (h) (antagonist radioligand); conditions: read-out: Inhibition 5-HT3 (h) (antagonist radioligand)
T4 sequence (P46098 24-478): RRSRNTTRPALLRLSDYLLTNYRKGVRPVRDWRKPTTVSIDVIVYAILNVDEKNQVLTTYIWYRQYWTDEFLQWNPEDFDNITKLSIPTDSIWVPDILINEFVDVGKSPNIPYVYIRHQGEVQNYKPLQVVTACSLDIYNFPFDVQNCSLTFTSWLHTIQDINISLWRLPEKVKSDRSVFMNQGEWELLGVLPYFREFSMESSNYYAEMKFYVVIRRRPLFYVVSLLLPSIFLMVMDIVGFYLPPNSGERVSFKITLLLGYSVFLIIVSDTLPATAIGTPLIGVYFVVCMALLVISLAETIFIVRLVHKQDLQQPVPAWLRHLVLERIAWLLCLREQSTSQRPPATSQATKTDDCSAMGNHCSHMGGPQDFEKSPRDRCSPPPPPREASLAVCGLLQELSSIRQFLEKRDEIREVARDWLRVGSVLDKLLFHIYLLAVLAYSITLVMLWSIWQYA

kappa (h) (KOP) = kappa (h) (KOP) (Homo sapiens, UniProt P41145); assay: kappa (h) (KOP) (agonist radioligand); conditions: read-out: Inhibition kappa (h) (KOP) (agonist radioligand)
Sequence of kappa (h) (KOP) (P41145 whole entry): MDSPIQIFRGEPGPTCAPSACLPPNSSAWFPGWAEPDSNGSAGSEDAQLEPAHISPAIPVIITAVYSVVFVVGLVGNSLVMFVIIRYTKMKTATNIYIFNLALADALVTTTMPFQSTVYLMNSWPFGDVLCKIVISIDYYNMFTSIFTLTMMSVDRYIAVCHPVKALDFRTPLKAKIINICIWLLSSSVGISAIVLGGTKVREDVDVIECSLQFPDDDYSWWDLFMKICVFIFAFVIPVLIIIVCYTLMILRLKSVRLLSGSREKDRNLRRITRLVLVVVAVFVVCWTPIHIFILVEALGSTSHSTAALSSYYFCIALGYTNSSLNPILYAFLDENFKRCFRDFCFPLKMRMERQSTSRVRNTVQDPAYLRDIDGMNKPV

Row | Compound | inhibition at 10 µM (COX2(h)) [%] | inhibition at 10 µM (GSK3beta (h)) [%] | inhibition at 10 µM (H3 (h)) [%] | inhibition at 10 µM (M2 (h)) [%] | inhibition at 10 µM (AT1 (h)) [%] | inhibition at 10 µM (beta2 (h)) [%] | inhibition at 10 µM (5-HT3 (h)) [%] | inhibition at 10 µM (kappa (h) (KOP)) [%]
1 | O=C(OC(C(F)(F)F)C(F)(F)F)N1CC2(CC(CC3=C4C=CC(c5ccc[nH]5)=[N+]4[B-](F)(F)n4cccc43)C2)C1 [Compound 2a] | 49.5 | -1.5 | 7.3 | -13.1 | 2.5 | 1.8 | 4.7 | 4.9
2 | O=C1CO[C@H]2CCN(C(=O)N3CC4(CC(CC5=C6C=CC(c7ccc[nH]7)=[N+]6[B-](F)(F)n6cccc65)C4)C3)C[C@H]2N1 [Compound 4a] | 48.9 | -15 | 1.8 | -4.9 | -12.5 | -6.2 | 1.1 | 22.7
3 | O=C(O[C@H](CO)C(F)(F)F)N1CC2(CC(CC3=C4C=CC=[N+]4[B-](F)(F)n4cccc43)C2)C1 [Compound 1] | 45.5 | 3.2 | 5.2 | 35.1 | -4.3 | -3.1 | 7.4 | 7.8
4 | O=C(OC(C(F)(F)F)C(F)(F)F)N1CC2(CC(CC3=C4C=CC=[N+]4[B-](F)(F)n4cccc43)C2)C1 [Compound 2] | 31.9 | -1.7 | -7.2 | 22.2 | -1.2 | -0.6 | -5.6 | 5.9
5 | O=C(N1CC2(CC(CC3=C4C=CC=[N+]4[B-](F)(F)n4cccc43)C2)C1)N1CC2(CC(n3cnc(C4CC4)n3)C2)C1 [Compound 5] | 23.8 | -1.2 | -3.7 | 33.2 | 11.1 | 5.4 | 1.4 | 10.3

Reference: PMC11951083, “Highly Specific Miniaturized Fluorescent Monoacylglycerol Lipase Probes Enable Translational Research” (Journal of the American Chemical Society, 2025)
